Assay results from PubChem BioAssay (NCI).
Where “and” joins values, the source holds several entries; their conditions need not be identical. Equal entries are not always repeated.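 Method: 48-hour compound exposure of cells in 96-well plates, five concentrations, linear interpolation of endpoints. Here, GI50 denotes the concentration required for 50% inhibition of growth. TGI denotes the concentration required for complete inhibition of growth.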

Key:
Test in all cases: inhibition of tumour cell growth, NCI panel, 48 h
CAKI-1 renal = system: CAKI-1 renal
T-47D breast = system: T-47D breast
NCI-H460 lung = system: NCI-H460 lung
K-562 leukemia = system: K-562 leukemia
LOX IMVI melanoma = system: LOX IMVI melanoma
SK-MEL-28 melanoma = system: SK-MEL-28 melanoma
NCI-H23 lung = system: NCI-H23 lung
A549 NSCLC = system: A549 NSCLC
EKVX NSCLC = system: EKVX NSCLC
UACC-62 melanoma = system: UACC-62 melanoma

Structure (SMILES)	TGI (CAKI-1 renal)	TGI (T-47D breast)	TGI (NCI-H460 lung)	TGI (K-562 leukemia)	TGI (LOX IMVI melanoma)	TGI (SK-MEL-28 melanoma)	TGI (NCI-H23 lung)	TGI (A549 NSCLC)	TGI (EKVX NSCLC)	TGI (UACC-62 melanoma)	GI50 (T-47D breast)	GI50 (CAKI-1 renal)	GI50 (NCI-H460 lung)	GI50 (K-562 leukemia)	GI50 (LOX IMVI melanoma)	GI50 (SK-MEL-28 melanoma)	GI50 (NCI-H23 lung)	GI50 (A549 NSCLC)	GI50 (EKVX NSCLC)	GI50 (UACC-62 melanoma)
O=C(/C=C/c1ccc(O)cc1)c1ccc2c(c1)OCO2	35.3 µM	75.3 µM	77.2 µM	81.5 µM	47 µM	42.3 µM	39.2 µM	44.8 µM	> 100 µM	47.6 µM										
CCCCC(C#N)(OP1(=O)OC(c2ccccc2)C(C)N1C)c1ccccc1 (stereo unspecified)	42.5 µM	55.1 µM	31 µM	44.8 µM	36.7 µM	31.9 µM	41.9 µM	44.3 µM	39.8 µM	29.4 µM										
COC(=O)C(Cc1c(C2Nc3ccccc3C2CC(NC(=O)CNC(C)=O)C(=O)OC)[nH]c2ccccc12)NC(=O)CNC(C)=O (stereo unspecified)	> 100 µM	> 100 µM	> 100 µM	> 100 µM	> 100 µM	> 100 µM	> 100 µM	> 100 µM	> 100 µM	> 100 µM										
C[Si](C)(OCCS(=O)(=O)O)C1(Cc2cccc3ccccc23)S(=O)(=O)OCCOS1(=O)=O	31.4 µM	34.6 µM	41.1 µM	> 100 µM	34 µM	37 µM	96 µM	65.2 µM	32.3 µM	43 µM										
O=C1CCC2(CC1CC(Sc1ccccc1)Sc1ccccc1)OCCO2 (stereo unspecified)	> 100 µM	97.3 µM	> 100 µM	> 100 µM	> 100 µM	> 100 µM	> 100 µM	> 100 µM	> 100 µM	> 100 µM										
COC(=O)NCCc1[nH]nc2c1C(=O)C=C(N1CCOCC1)C2=O	> 100 µM	> 100 µM	> 100 µM	> 100 µM	> 100 µM	> 100 µM	> 100 µM	> 100 µM	> 100 µM	> 100 µM										
O=C1NC(SSC2=NNC3(C(=O)N2)c2ccccc2-c2ccccc23)=NNC12c1ccccc1-c1ccccc12	> 10 µM	> 10 µM	> 10 µM	> 10 µM	> 10 µM	> 10 µM	> 10 µM	> 10 µM	> 10 µM	> 10 µM										
CCCSc1ccc2[nH]c(N3C(=O)/C(=C/c4ccco4)N=C3c3ccccc3)cc2c1	> 50 µM	> 50 µM	> 50 µM	> 50 µM	> 50 µM	> 50 µM	> 50 µM	> 50 µM	> 50 µM	> 50 µM										
O=S(=O)(O)c1cc(O)c2c(N=Cc3ccccc3O)cc(S(=O)(=O)O)cc2c1	> 100 µM	> 100 µM	> 100 µM	> 100 µM	> 100 µM	> 100 µM	> 100 µM	> 100 µM	> 100 µM	> 100 µM										
CC1=Nc2nc(Cl)cn2C(=O)C1(Cl)Cl	> 10 µM	> 10 µM	> 10 µM	> 10 µM	> 10 µM	> 10 µM	> 10 µM	> 10 µM	> 10 µM	> 10 µM										
CN(CCn1cnc2c1c(=O)n(C)c(=O)n2C)C1CCCCC1	> 100 µM	> 100 µM	> 100 µM	> 100 µM	> 100 µM	> 100 µM	> 100 µM	> 100 µM	> 100 µM	> 100 µM										
CCSc1sc(=Nc2ccc(N=c3sc(C)c(SC)s3)cc2)sc1-c1ccc(C)cc1	> 100 µM	> 100 µM	> 100 µM	> 100 µM	> 100 µM	> 100 µM	> 100 µM	> 100 µM	> 100 µM	> 100 µM										
Cc1[nH]c2c(c1C)S(=O)(=O)c1cc3ccccc3nc1N2	> 100 µM	> 100 µM	> 100 µM	> 100 µM	36.4 µM	67.3 µM	> 100 µM	> 100 µM	> 100 µM	> 100 µM										
O=C(c1ccccc1)N1CCN(C(=S)N(C(=O)c2ccccc2)c2ccccc2)C1=S	7.5 µM	> 31.9 µM	44.7 µM	> 100 µM	3.67 µM	9.55 µM	11.6 µM	19.1 µM	19.5 µM	11.4 µM										
CCCCc1ccc(Nc2nc3c(ncn3C3CC(O)C(CN=[N+]=[N-])O3)c(=O)[nH]2)cc1 (stereo unspecified)	> 100 µM	> 100 µM	> 100 µM	> 100 µM	> 100 µM	> 100 µM	> 100 µM	> 100 µM	> 100 µM	> 100 µM										
COc1ccc2nc3ccc(OC)cc3c(SCCO)c2c1	> 100 µM	> 100 µM	> 100 µM	> 100 µM	> 63 µM	> 100 µM	> 100 µM	> 100 µM	> 100 µM	> 100 µM										
CN(C)CCNC(=O)c1cccc2c(NCCN(C)C)c3ccccc3nc12	12.7 µM	> 83.6 µM	3.91 µM	6.86 µM	4.75 µM	28.6 µM	7.03 µM	6.05 µM	8.03 µM	9.19 µM										
CCOC(=O)C1=CNC(C(=O)OCC)C1c1cccn1-c1ccc(Cl)cc1[N+](=O)[O-] (stereo unspecified)	58.6 µM	> 100 µM	61.3 µM	85.9 µM	29.4 µM	53.1 µM	> 100 µM	> 100 µM	75.9 µM	35 µM										

Structure (SMILES)	TGI (CAKI-1 renal)	TGI (T-47D breast)	TGI (NCI-H460 lung)	TGI (K-562 leukemia)	TGI (LOX IMVI melanoma)	TGI (SK-MEL-28 melanoma)	TGI (NCI-H23 lung)	TGI (A549 NSCLC)	TGI (EKVX NSCLC)	TGI (UACC-62 melanoma)	GI50 (T-47D breast)	GI50 (CAKI-1 renal)	GI50 (NCI-H460 lung)	GI50 (K-562 leukemia)	GI50 (LOX IMVI melanoma)	GI50 (SK-MEL-28 melanoma)	GI50 (NCI-H23 lung)	GI50 (A549 NSCLC)	GI50 (EKVX NSCLC)	GI50 (UACC-62 melanoma)
O=C(/C=C/c1ccc(O)c(O)c1)OCCCc1ccccc1	47 µM	45.9 µM	55.6 µM	58.9 µM	27.1 µM	31.2 µM	35.3 µM	31.3 µM	63.8 µM	23.6 µM										
N#CCc1n[nH]c(Cc2ccccc2)n1	> 100 µM	> 100 µM	> 100 µM	> 100 µM	> 100 µM	> 100 µM	> 100 µM	> 100 µM	> 100 µM	> 100 µM										
C[C@]12CC[C@H]3[C@@H](CC=C4C[C@@H](N5CCCC5)CC[C@@]43C)[C@@H]1C[C@H](N1CCOCC1)[C@@H]2O	> 100 µM	> 100 µM	> 100 µM	74.3 µM	> 10 µM	> 100 µM	> 100 µM	> 100 µM	> 100 µM	> 100 µM										
COC(=O)CCC(=O)NC1=C(NCc2ccccc2)C(=O)c2ccccc2C1=O	72.8 µM	> 100 µM	> 100 µM	> 100 µM	77.2 µM	> 100 µM	64.6 µM	> 100 µM	> 100 µM	33.1 µM										
CC(C)/C(Cl)=N\OC(=O)Nc1ccccc1F	38.3 µM	49.5 µM	36.2 µM	6.52 µM	6.92 µM	30.4 µM	33.7 µM	35.6 µM	30.7 µM	36.6 µM										
COC(=O)[C@]1(c2cc3ccccc3n2S(=O)(=O)c2ccccc2)CC2CN(C(C)=O)C1CC2=O (stereo partly specified)	7.79 µM	7.05 µM	10.9 µM	12.1 µM	3.8 µM	11.7 µM	9.38 µM	13.1 µM	6.17 µM	3.27 µM										
O=CN1CCN(C(=O)c2ccc(Cl)cc2Cl)C1=S	> 100 µM	> 100 µM	> 100 µM	> 100 µM	> 100 µM	> 100 µM	> 100 µM	> 100 µM	> 100 µM	> 100 µM										
CC(=O)OC(/C=C/c1ccccc1)P1(=O)N(CC(C)(C)C)[C@@H]2CCCC[C@H]2N1CC(C)(C)C (stereo partly specified)	31.3 µM and 23.6 µM	9.04 µM and 6.4 µM	21.1 µM and 19 µM	21.7 µM and 20.6 µM	24 µM and 24.5 µM	34.4 µM and 28.5 µM	20.3 µM and 17.1 µM	17.3 µM and 18.5 µM	19.1 µM and 18.9 µM	21.1 µM and 23.2 µM	2.9 µM and 1.18 µM									
CC(=O)OCCCOCn1c(Cc2ccccc2)c(C)c(=O)[nH]c1=O	> 100 µM	> 100 µM	> 100 µM	> 100 µM	> 100 µM	> 100 µM	> 100 µM	> 100 µM	> 100 µM	> 100 µM										
OC(c1cc2ccccc2o1)c1cc2ccccc2s1 (stereo unspecified)	> 10 µM	> 10 µM	> 10 µM	> 10 µM	> 10 µM	> 10 µM	> 10 µM	> 10 µM	> 10 µM	> 10 µM										
CC1(C)N=C(C(N)=O)c2ncn(N)c2N1	> 100 µM	> 100 µM	> 100 µM	> 100 µM	> 100 µM	> 100 µM	> 100 µM	> 100 µM	> 100 µM	> 100 µM										
COC(=O)CCC(=O)NC1=C(Nc2ccc(OC)cc2)C(=O)c2ccccc2C1=O	40.2 µM	40.4 µM	21.1 µM	> 86.8 µM	16.1 µM	31.4 µM	22.7 µM	29.7 µM	38.3 µM	7.67 µM										
Cc1nc(C)c(C(=O)NNC(N)=S)cc1C(=O)NNC(N)=S	> 100 µM	> 100 µM	> 100 µM	> 100 µM	> 100 µM	> 100 µM	> 100 µM	> 100 µM	> 100 µM	> 100 µM										
Nc1ncnc2c1nnn2C1C=CC(COS(N)(=O)=O)C1 (stereo unspecified)	12.2 µM	97.7 µM	> 100 µM	> 100 µM	17.8 µM	26.2 µM	18.2 µM	> 100 µM	> 100 µM	35.4 µM										
S=C(NC1=NCC(CN2CCN(c3ccccc3)CC2)O1)Nc1ccccc1 (stereo unspecified)	> 100 µM	> 100 µM	> 100 µM	> 100 µM	61.8 µM	> 100 µM	> 100 µM	> 100 µM	> 100 µM	> 100 µM										
CCOC(=O)c1ccc(Nc2c3c(nc4ccccc24)CCCC3)cc1	> 100 µM	> 100 µM	> 100 µM	> 100 µM	> 100 µM	> 100 µM	> 100 µM	> 100 µM	> 100 µM	> 100 µM										
O=C(Nc1cccc(-n2ccc3c(NC(=O)c4ccccc4)nccc32)c1)Nc1cc(C(F)(F)F)cc(C(F)(F)F)c1	4.32 µM	> 50 µM	> 50 µM	> 50 µM	> 50 µM	> 50 µM	> 50 µM	> 50 µM	> 50 µM	13 µM	12.6 µM	1.53 µM	1.7 µM	1.68 µM	2.12 µM	2.14 µM	1.96 µM	1.97 µM	2.63 µM	2 µM
